Assay results as given in ChEMBL document CHEMBL1155753, “Verbalactone, a new macrocyclic dimer lactone from the roots of Verbascum undulatum with antibacterial activity” (2001).
In brackets after ≈: the same amount, converted by molar mass.

Assays:
Escherichia coli = assay: Antibacterial activity against Escherichia coli ATCC 25922 after 24 hrs by agar dilution method; assay type: functional; conditions: ATCC 25922, 24 h
Staphylococcus aureus = assay: Antibacterial activity against Staphylococcus aureus ATCC 25923 after 24 hrs by agar dilution method; assay type: functional; conditions: ATCC 25923, 24 h
Pseudomonas aeruginosa = assay: Antibacterial activity against Pseudomonas aeruginosa ATCC 27853 after 24 hrs by agar dilution method; assay type: functional; conditions: ATCC 27853, 24 h
Klebsiella pneumoniae = assay: Antibacterial activity against Klebsiella pneumoniae isolate after 24 hrs by agar dilution method; assay type: functional
[1] = system: Salmonella enterica subsp. enterica; assay: Antibacterial activity against Salmonella enteritidis isolate after 24 hrs by agar dilution method; assay type: functional, Salmonella enterica subsp. enterica serovar Enteritidis
[2] = system: Staphylococcus epidermidis; assay: Antibacterial activity against Staphylococcus epidermidis isolate after 24 hrs by agar dilution method; assay type: functional
Klebsiella aerogenes = assay: Antibacterial activity against Enterobacter aerogenes isolate after 24 hrs by agar dilution method; assay type: functional
Lacticaseibacillus casei = assay: Antibacterial activity against Lactobacillus casei isolate after 24 hrs by agar dilution method; assay type: functional

## CCCCC[C@@H]1C[C@@H](O)CC(=O)O[C@H](CCCCC)C[C@@H](O)CC(=O)O1 [VERBALACTONE]
Escherichia coli
  MIC: 250 µg/mL (≈ 671 µM)
Staphylococcus aureus
  MIC: 62.5 µg/mL (≈ 168 µM)
Pseudomonas aeruginosa
  MIC: 500 µg/mL (≈ 1340 µM)
Klebsiella pneumoniae
  MIC: 250 µg/mL (≈ 671 µM)
[1]
  MIC: 125 µg/mL (≈ 336 µM)
[2]
  MIC: 62.5 µg/mL (≈ 168 µM)
Klebsiella aerogenes
  MIC: > 500 µg/mL
Lacticaseibacillus casei
  MIC: > 125 µg/mL
